Experimental data published in PubChem BioAssay (NCI).
Where “and” joins values, the source holds several entries; their conditions need not be identical. Equal entries are not always repeated.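 Grown in 96-well plates, cells were treated for 48 hours with each compound at five concentrations. Insufficient inhibition: endpoint recorded as highest concentration tested. The concentration for 50% growth inhibition is given as GI50. At the TGI there is no net growth.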

Columns and labels:
Experiment in all cases: NCI tumour cell line growth inhibition, 48 h
ACHN renal = tested on: ACHN renal
HT29 colon = tested on: HT29 colon
TK-10 renal = tested on: TK-10 renal
SK-MEL-5 melanoma = tested on: SK-MEL-5 melanoma
SF-295 CNS = tested on: SF-295 CNS
NCI-H522 lung = tested on: NCI-H522 lung
SK-MEL-2 melanoma = tested on: SK-MEL-2 melanoma
LOX IMVI melanoma = tested on: LOX IMVI melanoma
OVCAR-5 ovarian = tested on: OVCAR-5 ovarian
SR leukemia = tested on: SR leukemia

Compound | GI50 (ACHN renal) | TGI (ACHN renal) | GI50 (HT29 colon) | TGI (HT29 colon) | GI50 (TK-10 renal) | TGI (TK-10 renal) | GI50 (SK-MEL-5 melanoma) | TGI (SK-MEL-5 melanoma) | GI50 (SF-295 CNS) | TGI (SF-295 CNS) | GI50 (NCI-H522 lung) | TGI (NCI-H522 lung) | GI50 (SK-MEL-2 melanoma) | TGI (SK-MEL-2 melanoma) | GI50 (LOX IMVI melanoma) | TGI (LOX IMVI melanoma) | GI50 (OVCAR-5 ovarian) | TGI (OVCAR-5 ovarian) | TGI (SR leukemia) | GI50 (SR leukemia)
Oc1ccccc1-c1nc2c3ccccc3c3ccccc3c2[nH]1 | 4.26 µM | 15.6 µM | 14 µM | 27 µM | 9.26 µM | 20.8 µM | 12.1 µM | 24.4 µM | 10.4 µM | 22.2 µM | 3.07 µM | 10.3 µM | 5.16 µM | 16.7 µM | 3.48 µM | 12 µM | 15 µM | 28.3 µM | – | –
COC(=O)c1c(-c2ccccc2)sc(-c2cccc3ccccc23)c1C(=O)OC | – | > 100 µM | – | > 100 µM | – | > 100 µM | – | > 100 µM | – | > 100 µM | – | > 100 µM | – | > 100 µM | – | > 100 µM | – | > 100 µM | – | –
CCOC(=O)C(=O)Nc1c(C(C)C)cccc1C(C)C | – | > 100 µM | – | > 100 µM | – | > 100 µM | – | > 100 µM | – | > 100 µM | – | > 100 µM | – | > 100 µM | – | – | – | – | > 100 µM | –
C=C(C=O)CCCC(C)[C@@H]1CCC23CC12CCC1[C@@]2(C)CCC(OC(C)=O)C(C)(C)C2CC(OC2OC(COC(C)=O)C(O)C(O)C2O)[C@]13C (stereo partly specified) | – | 9.78 µM | – | 11.9 µM | – | 12.5 µM | – | 11.3 µM | – | 11.6 µM | – | 1.53 µM | – | 13.9 µM | – | 1.43 µM | – | 11.8 µM | – | –
COC(=O)c1nc(N)[nH]c(=O)c1CCCCCc1c(C(=O)OC)nc(N)[nH]c1=O | – | > 50 µM | – | > 50 µM | – | > 50 µM | – | > 50 µM | – | > 50 µM | – | > 50 µM | – | > 50 µM | – | > 50 µM | – | > 50 µM | – | –
CCOC(=O)c1cc(/C=C/C(C)=C/C(=O)OC)n(C)c1C | – | > 100 µM | – | > 100 µM | – | > 100 µM | – | > 100 µM | – | > 100 µM | – | > 100 µM | – | – | – | > 100 µM | – | > 100 µM | – | –
Cc1c(Cl)cccc1NC(=O)CC1C(=O)Nc2ccccc2S1(=O)=O (stereo unspecified) | – | 31.5 µM | – | 38.2 µM | – | 56.6 µM | – | 26.7 µM | – | 36.5 µM | – | – | – | 45.9 µM | – | 29.1 µM | – | 41.5 µM | 30.3 µM | –
COC(=O)C1=C(CS(=O)c2ccccc2[N+](=O)[O-])ON(C)C1c1ccccc1 (stereo unspecified) | – | > 100 µM | – | > 100 µM | – | > 100 µM | – | > 100 µM | – | > 100 µM | – | 38 µM | – | > 100 µM | – | 28.9 µM | – | > 100 µM | – | –
O=[N+]([O-])c1ccc2c(c1)[O][Sn]([I])([I])[O]2 | > 100 µM | > 100 µM | > 100 µM | > 100 µM | > 100 µM | > 100 µM | > 100 µM | > 100 µM | > 100 µM | > 100 µM | 61.4 µM | > 100 µM | > 100 µM | > 100 µM | 89.4 µM | > 100 µM | > 100 µM | > 100 µM | – | –
O=[N+]([O-])c1ccc2c(c1)[O][Sn][O]2 | 139 µg/mL | > 150 µg/mL | 86 µg/mL | > 150 µg/mL | > 150 µg/mL | > 150 µg/mL | 75.8 µg/mL | > 150 µg/mL | > 150 µg/mL | > 150 µg/mL | 4.23 µg/mL | 69.5 µg/mL | > 150 µg/mL | > 150 µg/mL | 66.5 µg/mL | > 150 µg/mL | > 150 µg/mL | > 150 µg/mL | – | –
O=c1[nH]c(=O)n(C2OC3COC2C3O)cc1F (stereo unspecified) | – | > 100 µM | – | > 100 µM | – | > 100 µM | – | > 100 µM | – | > 100 µM | – | > 100 µM | – | > 100 µM | – | > 100 µM | – | > 100 µM | – | –
C1=CC=C2NCCOCCNC3=CC=CC=CC3=NCCOCCN=C2C=C1 | – | > 100 µM | – | 62.6 µM | – | > 100 µM | – | > 100 µM | – | > 100 µM | – | > 100 µM | – | > 100 µM | – | > 100 µM | – | > 100 µM | – | –
Cc1nn(-c2ccccc2)c(-c2ccccc2[N+](=O)[O-])c1CC#N | – | > 100 µM | – | – | – | > 100 µM | – | > 100 µM | – | > 100 µM | – | > 100 µM | – | > 100 µM | – | > 100 µM | – | > 100 µM | – | –
CC(C)(C)NC(=O)[C@H]1C[C@H]2CCCC[C@H]2CN1C[C@@H](O)[C@H](Cc1ccccc1)NC(=O)[C@H](CC(N)=O)NC(=O)c1ccc2ccccc2n1 | 16 µM | 29.5 µM | 9.38 µM | 28.2 µM | 15.4 µM | 36.6 µM | 14.5 µM | 30 µM | 18.3 µM | 39.3 µM | 15.6 µM | 33.8 µM | 22.7 µM | > 65.7 µM | 14.6 µM | 32.1 µM | 16.7 µM | 30.5 µM | – | –
C[N+]1(C)C/C(=C\c2ccncc2)C(=O)/C(=C/c2ccncc2)C1 | – | > 100 µM | – | > 100 µM | – | > 100 µM | – | > 100 µM | – | > 100 µM | – | 42 µM | – | – | – | > 100 µM | – | > 100 µM | > 100 µM | –
COc1ccc(CN2c3ccccc3CCc3ccccc32)cc1F | 0.604 µM | > 100 µM | 0.32 µM | 1.9 µM | 0.611 µM | > 100 µM | 0.522 µM | 14.2 µM | 0.333 µM | > 100 µM | 0.609 µM | > 100 µM | – | – | 0.725 µM | > 100 µM | 1.9 µM | > 100 µM | > 100 µM | 0.463 µM
CCC(c1cccc(O)c1)C(CC)c1cccc(O)c1 (stereo unspecified) | 5.64 µM | 18.9 µM | 1.86 µM | 11.2 µM | 2.93 µM | 20.4 µM | 1.41 µM | 3.91 µM | 3.99 µM | 19.7 µM | 4.9 µM | 19.3 µM | 3.96 µM | 17.2 µM | 4.07 µM | 16.9 µM | 12 µM | 24.3 µM | – | –
Cc1c2cc[n+](C)cc2c(C)c2c1[nH]c1ccc(O)c(OCC(F)(F)F)c12 | – | – | – | > 55 µM | – | 29.1 µM | – | 11.6 µM | – | 3.76 µM | – | 3.55 µM | – | 17.6 µM | – | 46.5 µM | – | 30.5 µM | – | –
CN1C(=O)C(Cl)(C(Cl)(Cl)S(=O)(=O)O)C(=O)c2ccccc21 (stereo unspecified) | – | > 100 µM | – | 73 µM | – | > 100 µM | – | > 100 µM | – | > 100 µM | – | > 100 µM | – | – | – | > 100 µM | – | – | > 100 µM | –
O=C([CH-]C(=O)C(F)(F)F)c1ccccc1.O=C([CH-]C(=O)C(F)(F)F)c1ccccc1.O=C([CH-]C(=O)C(F)(F)F)c1ccccc1.O=C([CH-]C(=O)C(F)(F)F)c1ccccc1.[Eu+3].c1ccncc1 | 8.71 µM | > 100 µM | 6.97 µM | > 100 µM | – | – | 11.2 µM | > 100 µM | 3.02 µM | 31 µM | 2.8 µM | 17.9 µM | – | – | 5.78 µM | 21 µM | 41 µM | > 100 µM | 19.7 µM | 3.86 µM
Cc1ccc(S(=O)(=O)N=Nc2c(O)[nH]c3c(Cl)cc(Cl)cc23)cc1 | – | > 100 µM | – | > 100 µM | – | > 100 µM | – | > 100 µM | – | > 100 µM | – | – | – | > 100 µM | – | > 100 µM | – | > 100 µM | > 100 µM | –
CCOC(=O)CC1NC(=O)CS1 (stereo unspecified) | – | > 100 µM | – | > 100 µM | – | > 100 µM | – | > 100 µM | – | > 100 µM | – | – | – | – | – | – | – | > 100 µM | – | –
O=c1ccc(=O)c2c(=O)c3ccccc3c(=O)c1=2 | – | > 100 µM | – | – | – | > 100 µM | – | 35.5 µM | – | > 100 µM | – | > 100 µM | – | > 100 µM | – | > 100 µM | – | > 100 µM | – | –
CCN(CC)CCCC(C)Nc1c2ccc(C)cc2nc2ccc(OC)cc12 (stereo unspecified) | 0.741 µM | 11.7 µM | 0.37 µM | 3.32 µM | 0.569 µM | 12.5 µM | 1.65 µM | 3.03 µM | 1.47 µM | 4.89 µM | – | – | 1.89 µM | 8.75 µM | 1.38 µM | 3.7 µM | 2.11 µM | 21.6 µM | 7.18 µM | 2.04 µM
N.N.N.N.N.N.O=N[O-].[Br-].[Co+3].[Co+3].[OH3+].[OH3+] | > 100 µM | > 100 µM | – | – | > 100 µM | > 100 µM | – | – | > 100 µM | > 100 µM | – | – | > 100 µM | > 100 µM | > 100 µM | > 100 µM | > 100 µM | > 100 µM | > 100 µM | > 100 µM
c1cc(CNC2C3CCC(C3)C2c2c[nH]c3ccccc23)cc(CNC2C3CCC(C3)C2c2c[nH]c3ccccc23)c1 (stereo unspecified) | – | 2.04 µM | 0.331 µM and 0.154 µM | – | – | 3.39 µM | – | 3.29 µM | – | – | – | 2.76 µM | – | 3.11 µM | – | – | – | 3.39 µM and 3.4 µM | 0.773 µM | –
O=C1C2Cc3ccccc3CN2C(=O)N1CCN1CCCC1 (stereo unspecified) | – | > 100 µM | – | – | – | > 100 µM | – | > 100 µM | – | > 100 µM | – | > 100 µM | – | > 100 µM | – | > 100 µM | – | > 100 µM | – | –
O=C1CCC(O)=C1O | – | > 100 µM | – | > 100 µM | – | > 100 µM | – | > 100 µM | – | > 100 µM | – | > 100 µM | – | > 100 µM | – | > 100 µM | – | > 100 µM | – | –
